Measurements published in patent publication US20080234262A1 (Wyeth, priority 2007, published 2008).

Legend:
breast line MDA468 = assay: In vitro cell culture growth assay (MTS), MDA468; assay type: cell-based, human; conditions: MDA468 cells, three days after drug treatment
Summary of the method: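 Cells were plated and, one day later, exposed to inhibitors for three days; viable cell density was then measured by metabolic conversion of MTS dye, read as absorbance at 490 nm. Growth is expressed as percent of vehicle-treated control cells on the same plate.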

PI3K = PI3K (Homo sapiens, UniProt P42336); assay: Fluorescence polarization assay for PI3K; assay type: biochemical; conditions: PI3Kα; read-out: PI3Kα IC50;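 further: PI3K kinase reaction on PIP2 with ATP, 30-60 min, product sensed by GST-GRP with red probe in fluorescence polarization (mP), controls without enzyme and at zero time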
prostate line LNCap = assay: In vitro cell culture growth assay (MTS), LNCap; assay type: cell-based, human; conditions: LNCap cells, three days after drug treatment

Chain of PI3K (P42336 whole entry): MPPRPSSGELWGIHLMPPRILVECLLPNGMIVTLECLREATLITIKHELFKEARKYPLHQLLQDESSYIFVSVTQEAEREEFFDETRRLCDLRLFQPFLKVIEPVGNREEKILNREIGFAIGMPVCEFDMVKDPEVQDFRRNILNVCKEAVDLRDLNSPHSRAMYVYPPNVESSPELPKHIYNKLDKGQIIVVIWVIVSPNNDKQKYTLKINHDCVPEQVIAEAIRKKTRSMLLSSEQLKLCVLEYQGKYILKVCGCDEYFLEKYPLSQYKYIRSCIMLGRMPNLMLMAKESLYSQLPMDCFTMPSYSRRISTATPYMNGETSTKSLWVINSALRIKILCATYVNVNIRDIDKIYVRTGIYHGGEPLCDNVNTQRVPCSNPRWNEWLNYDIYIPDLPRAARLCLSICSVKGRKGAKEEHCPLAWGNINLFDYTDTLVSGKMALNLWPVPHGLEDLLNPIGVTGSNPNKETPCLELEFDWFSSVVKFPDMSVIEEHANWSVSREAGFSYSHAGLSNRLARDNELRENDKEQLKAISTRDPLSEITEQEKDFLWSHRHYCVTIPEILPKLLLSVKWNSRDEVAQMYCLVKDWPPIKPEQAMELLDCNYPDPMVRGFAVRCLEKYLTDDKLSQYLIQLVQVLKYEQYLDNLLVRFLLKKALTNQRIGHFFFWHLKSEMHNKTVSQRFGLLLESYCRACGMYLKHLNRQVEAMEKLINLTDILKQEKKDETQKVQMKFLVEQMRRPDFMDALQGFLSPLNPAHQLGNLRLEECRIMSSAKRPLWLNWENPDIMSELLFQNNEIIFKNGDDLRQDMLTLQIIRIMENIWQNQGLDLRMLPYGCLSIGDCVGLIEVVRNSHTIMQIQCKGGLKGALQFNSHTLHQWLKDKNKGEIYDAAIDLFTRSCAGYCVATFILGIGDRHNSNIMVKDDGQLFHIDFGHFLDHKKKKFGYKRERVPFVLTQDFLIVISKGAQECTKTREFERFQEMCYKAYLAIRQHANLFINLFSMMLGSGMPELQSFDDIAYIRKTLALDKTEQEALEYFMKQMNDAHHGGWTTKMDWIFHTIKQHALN
Chain of PI3K (P27986 whole entry partner): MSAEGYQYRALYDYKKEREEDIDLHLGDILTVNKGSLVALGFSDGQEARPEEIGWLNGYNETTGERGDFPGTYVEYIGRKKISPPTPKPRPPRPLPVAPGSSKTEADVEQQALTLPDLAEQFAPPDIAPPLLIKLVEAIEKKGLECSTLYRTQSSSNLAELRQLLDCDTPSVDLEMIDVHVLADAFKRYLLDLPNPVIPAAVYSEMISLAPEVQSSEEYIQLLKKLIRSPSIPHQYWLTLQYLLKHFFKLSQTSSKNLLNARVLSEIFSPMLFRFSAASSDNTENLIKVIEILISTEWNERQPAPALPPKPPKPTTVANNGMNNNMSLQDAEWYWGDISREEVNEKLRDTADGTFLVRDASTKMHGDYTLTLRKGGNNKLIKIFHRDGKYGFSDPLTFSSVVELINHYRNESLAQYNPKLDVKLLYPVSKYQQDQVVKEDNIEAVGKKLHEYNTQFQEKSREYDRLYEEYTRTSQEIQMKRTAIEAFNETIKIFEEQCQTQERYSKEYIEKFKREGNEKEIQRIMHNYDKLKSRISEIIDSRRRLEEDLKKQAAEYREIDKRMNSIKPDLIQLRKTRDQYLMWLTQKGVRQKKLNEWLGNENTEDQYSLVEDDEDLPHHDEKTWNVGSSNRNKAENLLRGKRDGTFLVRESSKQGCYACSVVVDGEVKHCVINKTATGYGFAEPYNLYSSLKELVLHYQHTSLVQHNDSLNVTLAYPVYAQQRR

Compound | IC50 (breast line MDA468; Homo sapiens, 72 h) | IC50 (PI3K) | IC50 (prostate line LNCap; Homo sapiens, LNCaP, 72 h) | IC50 (breast line MDA468) | IC50 (prostate line LNCap)
CN(C)CCCNC(=O)c1ccc(-c2nc(N3CCOCC3)c3cnn(-c4ccccc4)c3n2)cc1 [Compound 102] | 7500 nM | 320 nM | 3200 nM |  | 
O=C(CCN1CCCCC1)Nc1ccc(-c2nc(N3CCOCC3)c3cnn(-c4ccccc4)c3n2)cc1 [Compound 137] | 1200 nM | 100 nM | 2800 nM |  | 
COC(=O)Nc1ccc(-c2nc(N3CCOCC3)c3cnn(C4CCN(CC(=O)c5ccccc5)CC4)c3n2)cc1 [Compound 457, methyl (4-{4-morpholin-4-yl-1-[1-(2-oxo-2-phenylethyl)piperidin-4-yl]-1H-pyrazolo[3,4-d]pyrimidin-6-yl}phenyl)carbamate] | 1800 nM | 585 nM | 500 nM |  | 
CN1CCN(C(=O)N2CCC(n3ncc4c(N5CCOCC5)nc(-c5ccc6[nH]ccc6c5)nc43)CC2)CC1 [Compound 120] | 2000 nM | 737 nM | 700 nM |  | 
C=CC(=O)N1CCC(n2ncc3c(N4CCOCC4)nc(-c4ccc5[nH]ccc5c4)nc32)CC1 [Compound 194] | 3000 nM | 1060 nM | 950 nM |  | 
COC(=O)N1CCC(n2ncc3c(N4CCOCC4)nc(-c4ccc(NC(=O)OCCN5CCN(C)CC5)cc4)nc32)CC1 [Compound 907, methyl 4-{6-[4-({[2-(4-methylpiperazin-1-yl)ethoxy]carbonyl}amino)phenyl]-4-morpholin-4-yl-1H-pyrazolo[3,4-d]pyrimidin-1-yl}piperidine-1-carboxylate] | 7000 nM | 1850 nM | 5500 nM |  | 
O=C(NO)Nc1ccc(-c2nc(N3CCOCC3)c3cnn(C4CCN(C(=O)c5cccnc5)CC4)c3n2)cc1 [Example 305, 1-hydroxy-3-(4-{4-morpholin-4-yl-1-[1-(pyridin-3-ylcarbonyl)piperidin-4-yl]-1H-pyrazolo[3,4-d]pyrimidin-6-yl}phenyl)urea] | 7200 nM | 604 nM | 10100 nM |  | 
COC(=O)Nc1ccc(-c2nc(N3CCOCC3)c3cnn(C4CCN(C(=O)N5CCN(C)CC5)CC4)c3n2)cc1 [Compound 448, methyl [4-(1-{1-[(4-methylpiperazin-1-yl)carbonyl]piperidin-4-yl}-4-morpholin-4-yl-1H-pyrazolo[3,4-d]pyrimidin-6-yl)phenyl]carbamate] | 1700 nM | 725 nM | 900 nM |  | 
c1cc2cc(-c3nc(N4CCOCC4)c4cnn(C5CCCCC5)c4n3)ccc2[nH]1 [Example 90, 1-cyclohexyl-6-(1H-indol-5-yl)-4-morpholin-4-yl-1H-pyrazolo[3,4-d]pyrimidine] | 3200 nM | 918 nM | 1200 nM |  | 
O=C(NCCc1ccccc1)Nc1ccc(-c2nc(N3CCOCC3)c3cnn(C4CCN(Cc5ccccc5)CC4)c3n2)cc1 [Compound 505, 1-{4-[1-(1-benzylpiperidin-4-yl)-4-morpholin-4-yl-1H-pyrazolo[3,4-d]pyrimidin-6-yl]phenyl}-3-(2-phenylethyl)urea] | 20000 nM | 2140 nM | 1000 nM |  | 
O=C(NCCF)Nc1ccc(-c2nc(N3CCOCC3)c3cnn(C4CCN(C(=O)c5cccnc5)CC4)c3n2)c(F)c1 [Example 463, 1-(2-fluoroethyl)-3-(3-fluoro-4-{4-morpholin-4-yl-1-[1-(pyridin-3-ylcarbonyl)piperidin-4-yl]-1H-pyrazolo[3,4-d]pyrimidin-6-yl}phenyl)urea] | 1200 nM | 1730 nM | 1200 nM |  | 
NC(=O)Nc1ccc(-c2nc(N3CCOCC3)c3cnn(C4CCN(C(=O)c5ccccc5)CC4)c3n2)cc1 [Compound 627, 1-{4-[1-(1-benzoylpiperidin-4-yl)-4-morpholin-4-yl-1H-pyrazolo[3,4-d]pyrimidin-6-yl]phenyl}urea] |  | 84 nM |  | 160 nM | 170 nM
CNC(=O)Nc1ccc(-c2nc(N3CCOCC3)c3cnn(C4CCN(C(=O)c5ccccn5)CC4)c3n2)cc1 [Example 418, 1-methyl-3-(4-{4-morpholin-4-yl-1-[1-(pyridin-2-ylcarbonyl)piperidin-4-yl]-1H-pyrazolo[3,4-d]pyrimidin-6-yl}phenyl)urea] | 200 nM | 124 nM | 120 nM |  | 
CCOC(=O)N1CCC(n2ncc3c(N4CCOCC4)nc(-c4ccc(NC(=O)NC5CC5)cc4)nc32)CC1 [Compound 821, ethyl 4-(6-{4-[(cyclopropylcarbamoyl)amino]phenyl}-4-morpholin-4-yl-1H-pyrazolo[3,4-d]pyrimidin-1-yl)piperidine-1-carboxylate] | 140 nM | 1120 nM | < 27 nM |  | 
CCCOC(=O)N1CCC(n2ncc3c(N4CCOCC4)nc(-c4ccc(NC(=O)NCCO)cc4)nc32)CC1 [Compound 855, propyl 4-[6-(4-{[(2-hydroxyethyl)carbamoyl]amino}phenyl)-4-morpholin-4-yl-1H-pyrazolo[3,4-d]pyrimidin-1-yl]piperidine-1-carboxylate] | 330 nM | 186 nM | 430 nM |  | 
CC(C)C(=O)N1CCC(n2ncc3c(N4CCOCC4)nc(-c4ccc(NC(=O)Nc5ccccc5)cc4)nc32)CC1 [Compound 826, 1-{4-[1-(1-isobutyrylpiperidin-4-yl)-4-morpholin-4-yl-1H-pyrazolo[3,4-d]pyrimidin-6-yl]phenyl}-3-phenylurea] | 110 nM | 29 nM | 30 nM |  | 
CCOC(=O)N1CCC(n2ncc3c(N4CCOCC4)nc(-c4ccc(NC(=O)OC)cc4)nc32)CC1 [Compound 805, ethyl 4-(6-{4-[(methoxycarbonyl)amino]phenyl}-4-morpholin-4-yl-1H-pyrazolo[3,4-d]pyrimidin-1-yl)piperidine-1-carboxylate] | 800 nM | 2670 nM | 510 nM |  | 
CCNC(=O)Nc1ccc(-c2nc(N3CCOCC3)c3cnn(C4CCN(CC(F)(F)F)CC4)c3n2)cc1 [Compound 782, 1-ethyl-3-(4-{4-morpholin-4-yl-1-[1-(2,2,2-trifluoroethyl)piperidin-4-yl]-1H-pyrazolo[3,4-d]pyrimidin-6-yl}phenyl)urea] | 300 nM | 766 nM | 60 nM |  | 
O=C(NCCF)Nc1ccc(-c2nc(N3CCOCC3)c3cnn(-c4ccccc4)c3n2)cc1 [Example 294, 1-(2-fluoroethyl)-3-[4-(4-morpholin-4-yl-1-phenyl-1H-pyrazolo[3,4-d]pyrimidin-6-yl)phenyl]urea] | 900 nM | 251 nM | 190 nM |  | 
COc1cc(-c2nc(N3CCOCC3)c3cnn(C4CCN(Cc5ccccc5)CC4)c3n2)ccc1N [Compound 181] | 5500 nM | 2480 nM | 1500 nM |  | 
Nc1ccc(-c2nc(N3CCOCC3)c3cnn(C4CCN(C(=O)c5cccnc5)CC4)c3n2)nc1 [Compound 679, 6-{4-morpholin-4-yl-1-[1-(pyridin-3-ylcarbonyl)piperidin-4-yl]-1H-pyrazolo[3,4-d]pyrimidin-6-yl}pyridin-3-amine] |  | 4040 nM |  | > 60000 nM | 45000 nM
COC(=O)Nc1ccc(-c2nc(N3CCOCC3)c3cnn(C4CCN(Cc5ccc(Cl)nc5)CC4)c3n2)cc1 [Example 454, methyl [4-(1-{1-[(6-chloropyridin-3-yl)methyl]piperidin-4-yl}-4-morpholin-4-yl-1H-pyrazolo[3,4-d]pyrimidin-6-yl)phenyl]carbamate] | 2000 nM | 619 nM | 740 nM |  | 
